In patent US20100267561A1, “HERBICIDAL PYRIDAZINONE DERIVATIVES” (priority 2007, published 2010):
Like-named read-outs stand apart in the source and are kept apart here.

How the values were obtained:
Experiment in all cases: Test B pre-/postemergence plant response
Format in all cases: in vivo
[1] = test system: bermudagrass (Cynodon dactylon); settings: for pest or weed control at 31 g/ha: 31 g ai/ha; for pest or weed control at 62 g/ha: 62 g ai/ha, 100 complete control
How it was run: (§1)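 Preemergence and postemergence (plants 2-18 cm, 1- to 4-leaf stage) applications used test chemicals in a non-phytotoxic solvent with surfactant. Plants were held in a greenhouse 13 to 15 days, then rated visually against controls on a 0-100 scale (0 no effect, 100 complete control).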

[2] = test system: blackgrass (Alopecurus myosuroides); settings: for pest or weed control at 31 g/ha: 31 g ai/ha; for pest or weed control at 62 g/ha: 62 g ai/ha, 100 complete control
How it was run: as §1

[3] = test system: catchweed bedstraw (Galium aparine); settings: Preemergence
How it was run: as §1

[4] = test system: common (oilseed) sunflower (Helianthus annuus); settings: Preemergence
How it was run: as §1

[5] = test system: corn (Zea mays); settings: for Corn plant response rating (crop injury, 0 = no effect, 100 = complete kill) at 31 g/ha: 31 g ai/ha; for Corn plant response rating (crop injury, 0 = no effect, 100 = complete kill) at 62 g/ha: 62 g ai/ha, 100 complete control
How it was run: as §1

[6] = test system: downy bromegrass (Bromus tectorum); settings: for pest or weed control at 31 g/ha: 31 g ai/ha
How it was run: as §1

[7] = test system: giant foxtail (Setaria faberii); settings: for pest or weed control at 31 g/ha: 31 g ai/ha; for pest or weed control at 62 g/ha: 62 g ai/ha, 100 complete control
How it was run: as §1

[8] = test system: green foxtail (Setaria viridis)
How it was run: as §1

[9] = 8 g ai/ha, postemergence, 0-100 scale
[10] = Preemergence, 8 g ai/ha, scale 0 to 100 (0 no effect, 100 complete control)
[11] = Preemergence, 16 g ai/ha, scale 0 to 100
[12] = 8 g ai/ha, scale 0 to 100 (0 no effect, 100 complete control)

Q: For `Cc1cc(-c2ccc(Br)cc2)nn1-c1c(OC(=O)C2CC2)cnn(C(=O)C2CC2)c1=O` [Compound 80, 5-[3-(4-bromophenyl)-5-methyl-1H-pyrazol-1-yl]-1-(cyclopropylcarbonyl)-1,6-dihydro-6-oxo-4-pyridazinyl cyclopropanecarboxylate], which “Bermudagrass plant response rating” value [1, 9] is on record?
A: The value was 85.

Q: And the pest or weed control at 16 g/ha ([1]; Cynodon dactylon, post-emergence, Postemergence, 16 g ai/ha, scale 0 to 100, read-out: Plant response rating, Bermudagrass)?
A: Its pest or weed control at 16 g/ha is 95%.

Q: And the pest or weed control at 31 g/ha ([1]; Cynodon dactylon, post-emergence, Postemergence, scale 0 to 100, read-out: Plant response rating, Bermudagrass)?
A: The pest or weed control at 31 g/ha was 100%.

Q: And the pest or weed control at 62 g/ha ([1]; Cynodon dactylon, post-emergence, Postemergence, scale 0 to 100, 0 no effect, read-out: Plant response rating, Bermudagrass)?
A: Its pest or weed control at 62 g/ha is 100%.

Q: And the pest or weed control at 31 g/ha ([1]; Cynodon dactylon, pre-emergence, Preemergence, scale 0 to 100 (0 no effect, 100 complete control), read-out: Plant response rating, Bermudagrass)?
A: The pest or weed control at 31 g/ha was 100%.

Q: And the pest or weed control at 62 g/ha ([1]; Cynodon dactylon, pre-emergence, Preemergence, 0 to 100 scale, 0 no effect, read-out: Plant response rating, Bermudagrass)?
A: Its pest or weed control at 62 g/ha is 100%.

Q: What about the “Bermudagrass plant response rating” value [1, 10] of the same compound?
A: The value was 50.

Q: And the “Bermudagrass plant response rating” value ([1]; Preemergence, 16 g ai/ha, scale 0 to 100 (0 no effect, 100 complete control))?
A: Its value is 100.

Q: What about the “Blackgrass plant response rating” value [2, 9] of the same compound?
A: The value was 80.

Q: What about the pest or weed control at 16 g/ha ([2]; Alopecurus myosuroides, post-emergence, Postemergence, 16 g ai/ha, scale 0 to 100, read-out: Plant response rating, Blackgrass) of the same compound?
A: The pest or weed control at 16 g/ha was 85%.

Q: And the pest or weed control at 31 g/ha ([2]; Alopecurus myosuroides, post-emergence, Postemergence, scale 0 to 100, read-out: Plant response rating, Blackgrass)?
A: The pest or weed control at 31 g/ha was 95%.

Q: And the pest or weed control at 62 g/ha ([2]; Alopecurus myosuroides, post-emergence, Postemergence, scale 0 to 100, 0 no effect, read-out: Plant response rating, Blackgrass)?
A: Its pest or weed control at 62 g/ha is 100%.

Q: What about the pest or weed control at 31 g/ha ([2]; Alopecurus myosuroides, pre-emergence, Preemergence, scale 0 to 100 (0 no effect, 100 complete control), read-out: Plant response rating, Blackgrass) of the same compound?
A: Its pest or weed control at 31 g/ha is 100%.

Q: What about the pest or weed control at 62 g/ha ([2]; Alopecurus myosuroides, pre-emergence, Preemergence, 0 to 100 scale, 0 no effect, read-out: Plant response rating, Blackgrass) of the same compound?
A: The pest or weed control at 62 g/ha was 100%.

Q: What about the “Blackgrass plant response rating” value [2, 10] of the same compound?
A: Its value is 70.

Q: And the “Blackgrass plant response rating” value [2, 11]?
A: The value was 70.

Q: What about the pest or weed control at 31 g/ha ([3]; Galium aparine, pre-emergence, 31 g ai/ha, scale 0 to 100 (0 no effect, 100 complete control), read-out: Plant response rating, Galium) of the same compound?
A: The pest or weed control at 31 g/ha was 0%.

Q: And the pest or weed control at 62 g/ha ([3]; Galium aparine, pre-emergence, 62 g ai/ha, 0 to 100 scale, 0 no effect, 100 complete control, read-out: Plant response rating, Galium)?
A: The pest or weed control at 62 g/ha was 0%.

Q: And the “Galium plant response rating” value [3, 12]?
A: Its value is 0.

Q: And the “Galium plant response rating” value ([3]; 16 g ai/ha, scale 0 to 100)?
A: The value was 0.

Q: And the pest or weed control at 31 g/ha ([4]; Helianthus annuus, pre-emergence, 31 g ai/ha, scale 0 to 100 (0 no effect, 100 complete control), read-out: Plant response rating, Sunflower)?
A: The pest or weed control at 31 g/ha was 0%.

Q: And the pest or weed control at 62 g/ha ([4]; Helianthus annuus, pre-emergence, 62 g ai/ha, 0 to 100 scale, 0 no effect, 100 complete control, read-out: Plant response rating, Sunflower)?
A: Its pest or weed control at 62 g/ha is 0%.

Q: What about the “Sunflower plant response rating” value [4, 12] of the same compound?
A: Its value is 0.

Q: And the “Sunflower plant response rating” value ([4]; 16 g ai/ha, scale 0 to 100)?
A: Its value is 0.

Q: What about the “Corn plant response rating” value [5, 9] of the same compound?
A: Its value is 100.

Q: And the “Corn plant response rating” value [5, 10]?
A: Its value is 20.

Q: And the “Corn plant response rating” value [5, 11]?
A: The value was 85.

Q: And the Corn plant response rating (crop injury, 0 = no effect, 100 = complete kill) at 16 g/ha ([5]; Zea mays, post-emergence, Postemergence, 16 g ai/ha, scale 0 to 100)?
A: Its Corn plant response rating (crop injury, 0 = no effect, 100 = complete kill) at 16 g/ha is 100%.

Q: What about the Corn plant response rating (crop injury, 0 = no effect, 100 = complete kill) at 31 g/ha ([5]; Zea mays, post-emergence, Postemergence, scale 0 to 100) of the same compound?
A: The Corn plant response rating (crop injury, 0 = no effect, 100 = complete kill) at 31 g/ha was 100%.

Q: What about the Corn plant response rating (crop injury, 0 = no effect, 100 = complete kill) at 62 g/ha ([5]; Zea mays, post-emergence, Postemergence, scale 0 to 100, 0 no effect) of the same compound?
A: Its Corn plant response rating (crop injury, 0 = no effect, 100 = complete kill) at 62 g/ha is 100%.

Q: And the Corn plant response rating (crop injury, 0 = no effect, 100 = complete kill) at 31 g/ha ([5]; Zea mays, pre-emergence, Preemergence, scale 0 to 100 (0 no effect, 100 complete control))?
A: The Corn plant response rating (crop injury, 0 = no effect, 100 = complete kill) at 31 g/ha was 98%.

Q: And the Corn plant response rating (crop injury, 0 = no effect, 100 = complete kill) at 62 g/ha ([5]; Zea mays, pre-emergence, Preemergence, 0 to 100 scale, 0 no effect)?
A: The Corn plant response rating (crop injury, 0 = no effect, 100 = complete kill) at 62 g/ha was 100%.

Q: And the “Bromegrass, Downy plant response rating” value [6, 9]?
A: The value was 40.

Q: And the pest or weed control at 16 g/ha ([6]; Bromus tectorum, post-emergence, Postemergence, 16 g ai/ha, scale 0 to 100, read-out: Plant response rating, Bromegrass, Downy)?
A: The pest or weed control at 16 g/ha was 45%.

Q: What about the pest or weed control at 31 g/ha ([6]; Bromus tectorum, post-emergence, Postemergence, scale 0 to 100, read-out: Plant response rating, Bromegrass, Downy) of the same compound?
A: Its pest or weed control at 31 g/ha is 90%.

Q: What about the pest or weed control at 31 g/ha ([6]; Bromus tectorum, pre-emergence, Preemergence, scale 0 to 100 (0 no effect, 100 complete control), read-out: Plant response rating, Bromegrass, Downy) of the same compound?
A: The pest or weed control at 31 g/ha was 85%.

Q: What about the pest or weed control at 62 g/ha ([6]; Bromus tectorum, pre-emergence, Preemergence, 62 g ai/ha, 0 to 100 scale, 0 no effect, 100 complete control, read-out: Plant response rating, Bromegrass, Downy) of the same compound?
A: The pest or weed control at 62 g/ha was 85%.

Q: What about the “Bromegrass, Downy plant response rating” value [6, 10] of the same compound?
A: Its value is 0.

Q: What about the “Bromegrass, Downy plant response rating” value [6, 11] of the same compound?
A: The value was 30.

Q: And the “Foxtail, Giant plant response rating” value [7, 9]?
A: The value was 95.

Q: What about the “Foxtail, Giant plant response rating” value [7, 10] of the same compound?
A: The value was 0.

Q: What about the “Foxtail, Giant plant response rating” value [7, 11] of the same compound?
A: The value was 100.

Q: What about the pest or weed control at 16 g/ha ([7]; Setaria faberi, post-emergence, Postemergence, 16 g ai/ha, scale 0 to 100, read-out: Plant response rating, Foxtail, Giant) of the same compound?
A: The pest or weed control at 16 g/ha was 100%.

Q: And the pest or weed control at 31 g/ha ([7]; Setaria faberi, post-emergence, Postemergence, scale 0 to 100, read-out: Plant response rating, Foxtail, Giant)?
A: Its pest or weed control at 31 g/ha is 100%.

Q: And the pest or weed control at 62 g/ha ([7]; Setaria faberi, post-emergence, Postemergence, scale 0 to 100, 0 no effect, read-out: Plant response rating, Foxtail, Giant)?
A: The pest or weed control at 62 g/ha was 100%.

Q: What about the pest or weed control at 31 g/ha ([7]; Setaria faberi, pre-emergence, Preemergence, scale 0 to 100 (0 no effect, 100 complete control), read-out: Plant response rating, Foxtail, Giant) of the same compound?
A: The pest or weed control at 31 g/ha was 100%.

Q: What about the pest or weed control at 62 g/ha ([7]; Setaria faberi, pre-emergence, Preemergence, 0 to 100 scale, 0 no effect, read-out: Plant response rating, Foxtail, Giant) of the same compound?
A: The pest or weed control at 62 g/ha was 100%.

Q: What about the “Foxtail, Green plant response rating” value [8, 9] of the same compound?
A: Its value is 50.

Q: What about the “Foxtail, Green plant response rating” value [8, 10] of the same compound?
A: The value was 0.

Q: What about the “Foxtail, Green plant response rating” value [8, 11] of the same compound?
A: The value was 98.

Q: What about the pest or weed control at 16 g/ha ([8]; Setaria viridis, post-emergence, Postemergence, 16 g ai/ha, scale 0 to 100, read-out: Plant response rating, Foxtail, Green) of the same compound?
A: Its pest or weed control at 16 g/ha is 60%.
